From US8309554B2 (priority 2008, dated 2012)
Where “and” joins values, the source holds several entries; their conditions need not be identical. Equal entries are not always repeated. Where two headings read alike, the source gives them in different places.

How the values were obtained:
HT29 = experiment: cells; type: cell-based; conditions: for IC50: Homo sapiens, HT-29, 2 h
H460 = experiment: cells; type: cell-based; conditions: for IC50: Homo sapiens
[1] = system: H460 non small cell lung xenograft; conditions: mouse, in vivo
in vivo = conditions: mouse, ip
H460 spheroid = experiment: cells; type: cell-based; conditions: Homo sapiens
[2] = system: HT 1080 sarcoma xenograft; conditions: mouse, in vivo
[3] = NCI-H460, 2 h, read-out: 2 hr Air H460 IC50
[4] = NCI-H460, 2 h, read-out: 2 hr N2 H460 IC50
[5] = NCI-H460, read-out: 2 h Air H460 monolayer IC50
[6] = NCI-H460, read-out: 2 h N2 H460 monolayer IC50
[7] = NCI-H460, read-out: 2 h Air H460 spheroid IC50
[8] = NCI-H460, read-out: 2 h N2 H460 spheroid IC50

Compound	HT29 HCR: Air/N2 (HT29)	IC50 (HT29; read-out: 2 hr Air HT29 IC50) [µM]	IC50 (HT29; read-out: 2 hr N2 HT29 IC50) [µM]	H460 HCR: Air/N2 (H460)	IC50 (H460; [3]) [µM]	IC50 (H460; [4]) [µM]	tumor growth delay to 500 mm^3 [1]	MTD (in vivo) [mg/kg]	IC50 (H460; [5]) [µM]	IC50 (H460; [6]) [µM]	IC50 (H460 spheroid; [7]) [µM]	IC50 (H460 spheroid; [8]) [µM]	tumor growth delay to 500 mm^3 ([2]; ip, 50 mg/kg) [days]	tumor growth delay to 500 mm^3 [2] [days]
O=[N+]([O-])c1sccc1C(Cc1ccc(O)nc1)S(=O)(=O)Oc1ccc(N(CCCl)CCCl)cc1 (stereo not drawn) [TH-1305, 3-(4-(N,N-bis-(2-Chloroethyl)amino)phenoxysulfonyl-(2-hydroxypyridin-5-yl-methyl))methyl-2-nitrothiophene]	>44	> 300	6.8	67	47	0.7	10 days	20						
Cc1cc(OS(=O)(=O)C(C)c2ccsc2[N+](=O)[O-])ccc1N(CCCl)CCCl (stereo not drawn) [TH-1120]									2.4	0.3	< 0.08	< 0.08		
CN(c1ccc(N(CCCl)CCCl)cc1)S(=O)(=O)Cn1ccnc1[N+](=O)[O-] [TH-1107]									113	7.9	< 0.69	< 0.69		
O=C(CO)Nc1ccc(CC(c2ccsc2[N+](=O)[O-])S(=O)(=O)Oc2ccc(N(CCCl)CCCl)cc2)cn1 (stereo not drawn) [TH-1354, 3-(4-(N,N-bis-(2-Chloroethyl)amino)phenoxysulfonyl-(2-(hydroxyacetylamino)pyridin-5-yl-methyl))methyl-2-nitrothiophene]	33	660	20	65	156	2.4	15 days and 12 days	40						
O=[N+]([O-])c1sccc1C(Cc1ccc(OCCO)nc1)S(=O)(=O)Oc1ccc(N(CCCl)CCCl)cc1 (stereo not drawn) [TH-1315, 3-(4-(N,N-bis-(2-Chloroethyl)amino)phenoxysulfonyl-(2-(2-hydroxyethoxy)pyridin-5-yl-methyl))methyl-2-nitrothiophene]	>23	> 300	13	142	99.5	0.7	19 days	50					6	
O=[N+]([O-])c1sccc1C(Cc1cccnc1)S(=O)(=O)Oc1ccc(N(CCCl)CCCl)cc1 (stereo not drawn) [TH-1331, 3-(4-(N,N-bis-(2-Chloroethyl)amino)phenoxysulfonyl-(pyridin-3-yl-methyl))methyl-2-nitrothiophene]	15	166	11	69	103	1.5	11 days and 10 days	60						
CS(=O)(=O)CCC(c1ccsc1[N+](=O)[O-])S(=O)(=O)Oc1ccc(N(CCCl)CCCl)cc1 (stereo not drawn) [TH-1266, 3-(4-(N,N-bis-(2-Chloroethyl)amino)phenoxysulfonyl-(2-methylsulfonyl)ethyl)methyl-2-nitrothiophene]	>29	> 1000	34	183	55	0.3	25 days and 21 days	40						
Cn1cncc1CC(c1ccsc1[N+](=O)[O-])S(=O)(=O)Oc1ccc(N(CCCl)CCCl)cc1 (stereo not drawn) [TH-1365]	25	270	11	33	23	0.7	10 days	10						
COc1cccc2c1C(=O)c1c(O)c3c(c(O)c1C2=O)C[C@@](O)(C(=O)CO)C[C@@H]3O[C@H]1C[C@H](N)[C@H](O)[C@H](C)O1 [doxorubicin, reference compound]														10
CC(n1ccnc1[N+](=O)[O-])S(=O)(=O)N(C)c1ccc(N(CCCl)CCCl)cc1 (stereo not drawn) [TH-1127]									37	3.9	< 0.69	< 0.69		
O=[N+]([O-])c1sccc1C(CCS(=O)(=O)CCO)S(=O)(=O)Oc1ccc(N(CCCl)CCCl)cc1 (stereo not drawn) [TH-1388]	30	420	14	35	49	1.4								
O=[N+]([O-])c1sccc1C(Cc1cn2ccccc2n1)S(=O)(=O)Oc1ccc(N(CCCl)CCCl)cc1 (stereo not drawn) [TH-1456, 3-(4-(N,N-bis-(2-Chloroethyl)amino)phenoxysulfonyl-(imidazopyridin-2-yl-methyl))methyl-2-nitrothiophene]	>60	> 300	5	100	30	0.3								
CC(=O)Nc1ccncc1CC(c1ccsc1[N+](=O)[O-])S(=O)(=O)Oc1ccc(N(CCCl)CCCl)cc1 (stereo not drawn) [TH-1364]	27	350	13	36	64	1.8								
O=[N+]([O-])c1sccc1C(Cc1ccccn1)S(=O)(=O)Oc1ccc(N(CCCl)CCCl)cc1 (stereo not drawn) [TH-1357]	>2	> 1000	500	41	127	3.1								
O=[N+]([O-])c1sccc1C(CCS(=O)(=O)N1CCOCC1)S(=O)(=O)Oc1ccc(N(CCCl)CCCl)cc1 (stereo not drawn) [TH-1303]		> 300	> 300	69	75.5	1.1								
CS(=O)(=O)N(c1ccc(CC(c2ccsc2[N+](=O)[O-])S(=O)(=O)Oc2ccc(N(CCCl)CCCl)cc2)cn1)S(C)(=O)=O (stereo not drawn) [TH-1257]		> 300	> 300	424.0	212	0.5								
Nc1cccc(OS(=O)(=O)CCC(c2ccsc2[N+](=O)[O-])S(=O)(=O)Oc2ccc(N(CCCl)CCCl)cc2)c1 (stereo not drawn) [TH-1402]		> 1000	> 1000	93.3	140	1.5								
CN(c1ccc(N(CCCl)CCCl)cc1)S(=O)(=O)C(C)(C)c1cnc([N+](=O)[O-])n1C [TH-1126]									45	7.1	< 0.69	< 0.69		
O=[N+]([O-])c1sccc1C(Cc1ccc(OCCO)cc1)S(=O)(=O)Oc1ccc(N(CCCl)CCCl)cc1 (stereo not drawn) [TH-1325]		> 300	> 300	929	92.9	0.1								
O=C1c2ccccc2C(=O)N1CC(c1ccsc1[N+](=O)[O-])S(=O)(=O)Oc1ccc(N(CCCl)CCCl)cc1 (stereo not drawn) [TH-1327]		> 1000	> 1000	178	107	0.6								
COc1ccc(CC(c2ccsc2[N+](=O)[O-])S(=O)(=O)Oc2ccc(N(CCCl)CCCl)cc2)c(OC)n1 (stereo not drawn) [TH-1362]		> 1000	> 1000	46	253	5.5								
CC(=O)Nc1ccc(CC(c2ccsc2[N+](=O)[O-])S(=O)(=O)Oc2ccc(N(CCCl)CCCl)cc2)cc1 (stereo not drawn) [TH-1346]	3.2	145	46	200	220	1.1								
